From US9580426B2, “Compounds that expand hematopoietic stem cells” (Novartis AG, priority 2008, dated 2017)

Legend:
CB CD34+ cells = assay: Determination of CD34+ cell subsets by FACS; assay type: cell-based, human
Procedure: Surface Antigen Analysis: The cells are washed with staining media (Hanks balanced salt solution containing FBS (2%) and EDTA (2 mM)) and stained (at 4° C. for 30 minutes) with indicated primary conjugated antibodies. The cells are washed in the previously described buffer and analyzed using a BD LSR II flow cytometer (Becton Dickinson, San Jose, Calif.). The cells are passed at a rate of up to 1000 cells/second using 488-nm argon and 633-nm HeNe laser beams as the light source for excitation. Emission of 10^4 cells is measured using logarithmic amplification and analyzed using FlowJo software (TreeStar Inc. Ashland, Oreg.). Cells stained with primary conjugated isotype control antibodies are used to determine background fluorescence.
Determination of CD34^+ cell subsets: The percentages of CD34^+ cell subsets are determined from aliquots of the cell culture. Cells were stained with APC anti-Thy1.1, PerCP anti-CD34, PECy7 anti CD45RA, FITC anti CD38, and PE anti-CD133 for determination of CD34^+Thy1.1^+, CD34^+CD45RA^−, CD34^+CD38^−, CD133^+CD38^− and CD34^+CD133^+ cells. Antibodies to CD34, CD38, Thy1.1 and CD45RA were purchased from Becton Dickinson and antibodies to CD133 were purchased Miltenyi Biotec. FACS analysis results of these subsets are given as percentage of the total population. The absolute number of each population of cells in the culture is calculated from the total number of cells multiplied by the percentage of each population. Starting with CB CD34+ cell, after five weeks the total cell number in the cultures increased on average greater than 2-fold in the 4-(2-(2-(benzo[b]thiophen-3-yl)-9-isopropyl-9H-purin-6-ylamino)ethyl)phenol (compound 1, table 1; example 1) 1 micromolar treated cells compared to control cultures. More importantly, >50% of 4-(2-(2-(benzo[b]thiophen-3-yl)-9-isopropyl-9H-purin-6-ylamino)ethyl)phenol (compound 1, table 1; example 1) cultured cells were CD34^+ compared to <10% of vehicle cultured cells resulting in a greater than 10-fold expansion of CD34^+ cells compared to control and a greater than 10.000-fold expansion compared to input cells. In addition, the presence of 1 micromolar 4-(2-(2-(benzo[b]thiophen-3-yl)-9-isopropyl-9H-purin-6-ylamino)ethyl)phenol (compound 1, table 1; example 1) increased both the percentage and total numbers of the CD34^+ subpopulations, CD34^+CD45RA^−, CD34^+CD38^−, CD133^+CD38^−, and CD34^+CD133^+ resulting in a net expansion of greater than 30-fold for each subset.

[1] = tested on: mPB CD34+ cells and CB CD34+ cells; assay: Colony-Forming Units in Culture (CFU-C) Assay; assay type: cell-based, human
Procedure: Colony-Forming Units in Culture (CFU-C) Assay: Mononuclear cells at 1000 per mL for cord blood 5 week and mPB 3 week culture and 100 cells per mL for C δ 3 week and mPB 1 week culture were added to MethoCult SF H4436, serum-free methylcellulose medium containing methylcellulose in Iscove's MDM, bovine serum albumin, 2-mercaptoethanol, L-glutamine, human transferring (iron saturated), recombinant human insulin, and recombinant human cytokines: stem cell factor, GM-CSF, IL-3, IL-6, G-CSF, and erythropoietin (StemCell Technologies). The MethoCult is supplemented with the following human recombinant cytokines: thrombopoietin, and Flt-3 ligand (R&D Systems), each at a final concentration of 50 ng/mL. After stirring, the mixture is divided into three 35-mm dishes. The dishes are incubated for 14 days at 37° C. in a humidified atmosphere of 5% CO2 in air. At the end of the incubation period, myeloid and erythroid colonies are counted under an inverted microscope at 40× magnification. CFU-C content of the expansion culture is calculated as follows: number of scored colonies per three dishes×total mononuclear cell number/input cell number. Up to one week, total mononuclear cells are determined by multiplying the number of cells per milliliter by the culture volume. From week 1 and on, the number of passages is also taken into account. Cultures treated with 4-(2-(2-(benzo[b]thiophen-3-yl)-9-isopropyl-9H-purin-6-ylamino)ethyl)phenol (compound 1, table 1; example 1) at a concentration of 1 micromolar, generated a greater than 10-fold increase in the number of colony forming cells after 21 days of culture of mPB CD34+ cells compared to vehicle. […] Cells treated with a 4-(2-(2-(benzo[b]thiophen-3-yl)-9-isopropyl-9H-purin-6-ylamino)ethyl)phenol (compound 1, table 1; example 1) generated more mixed colonies associated with a >10-fold increase in erythrocyte colonies, a >10-fold increase in granulocyte/macrophage colonies, and a >10-fold increase in macrophage colonies.

mPB CD34+ HSCs = assay: Cobblestone area-forming cell (CAFC) assay; assay type: cell-based, human; conditions: 1 micromolar; mPB CD34+ HSCs after 5 days of culture
Procedure: Cobblestone area-forming cell (CAFC) assays: The FBMD-1 stromal cells are maintained in 25-cm^2 flasks and are trypsinized after ⅓ confluence. Since this non-transformed line ages, and therefore gradually loses its potential to support CAFC growth at late stages, all feeders are used below passage 20. For supporting CAFC growth in 96-well plates, 1×10^3 stromal cells are seeded per well. The cultures are maintained in Iscove's medium supplemented with 10% fetal calf serum (FCS), 2.5% horse serum (HS), 1% L-glutamine, 1% penicillin-streptomycin, and 1×10^−5 M hydrocortisone at 37° C. in a humidified atmosphere of 5% CO2 in air. After stromal layers reach confluency, they are inoculated with CD34^+ HSCs that have been cultured for 5 days with vehicle or a compound of the invention. MNCs are added at 8 serial 1:3 dilutions (starting at 25,000 cells/well), with 10 wells for each cell dose. The dilutions with wells with at least one phase-dark hematopoietic clone (cobblestone area) of at least five cells beneath the stromal layer are determined at week 4. […]

murine HSC = assay: Activity on murine HSC; assay type: cell-based

## CC(C)n1cnc2c(NCCc3ccc(O)cc3)nc(-c3csc4ccccc34)nc21 [Example 1, 4-(2-(2-(benzo[b]thiophen-3-yl)-9-isopropyl-9H-purin-6-ylamino)ethyl)phenol]
CB CD34+ cells; 1 micromolar
  net expansion of each subset CD34+CD45RA-, CD34+CD38-, CD133+CD38-, CD34+CD133+: greater than 30 fold
CB CD34+ cells; 1 micromolar, after five weeks
  increase of total cell number compared to control cultures: greater than 2 fold
CB CD34+ cells; five weeks
  expansion of CD34+ cells compared to control: greater than 10 fold
  expansion of CD34+ cells compared to input cells: greater than 10.000 fold
CB CD34+ cells; five weeks, vehicle <10%
  percentage of cultured cells that were CD34+: > 50%
[1]; 1 micromolar, 1x10^3 CB CD34+ cells, 5 week culture
  increase in colony forming units compared to control: greater than 10 fold
[1]; 1 micromolar, after 21 days of culture of mPB CD34+ cells
  increase in the number of colony forming cells compared to vehicle: greater than 10 fold
[1]; not observed in colonies derived from untreated cultures
  mixed granulocyte/erythrocyte/monocyte/macrophage colonies: give rise mixed granulocyte/erythrocyte/monocyte/macrophage colonies
[1]; treated cells vs untreated
  increase in erythrocyte colonies: greater than 10 fold
  increase in granulocyte/macrophage colonies: greater than 10 fold
  increase in macrophage colonies: greater than 10 fold
mPB CD34+ HSCs
  increase in the number of cobblestone area forming cells compared with DMSO control: greater than 2 fold
Murine HSC
  activity on murine HSC: lack of activity
